For this test, the target named is T1, hTLR7 (Homo sapiens, UniProt Q9NYK1).
T1 construct: host or cells: HEK-Blue hTLR7 (HEK293-derived reporter cell line)
T1 sequence (Q9NYK1 27-1049): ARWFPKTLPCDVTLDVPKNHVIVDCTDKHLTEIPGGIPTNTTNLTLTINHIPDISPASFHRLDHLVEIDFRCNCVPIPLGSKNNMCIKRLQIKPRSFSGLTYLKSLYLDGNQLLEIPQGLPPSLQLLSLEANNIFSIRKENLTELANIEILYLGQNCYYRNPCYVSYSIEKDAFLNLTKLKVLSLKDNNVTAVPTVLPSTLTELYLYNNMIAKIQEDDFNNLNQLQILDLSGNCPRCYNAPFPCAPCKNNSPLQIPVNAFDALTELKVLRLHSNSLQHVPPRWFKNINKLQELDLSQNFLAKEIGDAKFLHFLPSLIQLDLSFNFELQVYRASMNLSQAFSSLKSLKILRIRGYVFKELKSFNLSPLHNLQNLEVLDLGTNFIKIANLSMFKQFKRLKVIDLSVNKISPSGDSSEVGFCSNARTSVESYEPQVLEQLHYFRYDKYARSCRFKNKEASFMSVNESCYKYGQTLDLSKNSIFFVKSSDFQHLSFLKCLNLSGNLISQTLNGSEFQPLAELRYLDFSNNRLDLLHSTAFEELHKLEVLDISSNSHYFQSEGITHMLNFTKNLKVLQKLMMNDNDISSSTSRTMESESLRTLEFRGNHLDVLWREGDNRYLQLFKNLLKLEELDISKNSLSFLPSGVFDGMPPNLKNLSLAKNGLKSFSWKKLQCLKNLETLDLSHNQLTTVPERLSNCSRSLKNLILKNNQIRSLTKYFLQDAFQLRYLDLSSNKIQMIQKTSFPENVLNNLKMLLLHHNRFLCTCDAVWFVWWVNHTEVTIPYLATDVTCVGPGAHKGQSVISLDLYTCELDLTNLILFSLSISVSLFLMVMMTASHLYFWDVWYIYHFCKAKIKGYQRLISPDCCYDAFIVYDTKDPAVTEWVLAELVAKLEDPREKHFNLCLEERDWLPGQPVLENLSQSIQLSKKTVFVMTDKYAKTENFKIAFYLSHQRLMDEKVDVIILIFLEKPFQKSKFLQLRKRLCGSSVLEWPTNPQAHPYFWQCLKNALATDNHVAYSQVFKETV
Description: HEK-Blue hTLR7 reporter assay (NF-kB-induced SEAP, Quanti-Blue, OD 655 nm). The format is cell-based. Conditions: for TLR7 activity / potency stated in words: FIGS. 6-9. As for the experimental part:
HEK-Blue™ hTLR7 cells were incubated in HEK-Blue™ Detection medium and stimulated with increasing concentrations of TLR7 or TLR8 or TLR7/8 agonists. […] The EC50 was determined from dose-response curve using Prism Software.

The mark [1] stands for this setting: Table 14, FIG. 8, (DL) = drug linker, read-out: TLR7 EC50.
The mark [2] stands for this setting: text to FIG. 5B and FIG. 8, read-out: EC50 values (TLR7).

Read-outs that look alike come from different tables or passages of the source.

Regarding `CCOCc1nc2c(N)nc3ccccc3c2n1CCCCNC(=O)c1ccc(N)c(OC)c1` [AXC-807], for the setting “Table 10, FIG. 5A, 24 h, read-out: TLR7 EC50”, the EC50 was 413 nM.

Turning to `CCCCNc1nc(N)c2[nH]c(=O)n(Cc3ccc(NCCN(C)CCNC(=O)CON)nc3)c2n1` [AXC-868, N-(2-((2-(5-((6-amino-2-(butylamino)-8-oxo-7H-purin-9(8H)-yl)methyl)pyridin-2-ylamino)ethyl)(methyl)amino)ethyl)-2-(aminooxy)acetamide], the EC50 (Table 12, FIG. 6, TLR7 agonists attached to a linker, read-out: TLR Agonist Payload + Linkers EC50) was > 5000 nM.

As to `CCCCOc1nc(N)c2[nH]c(=O)n(Cc3ccc(CN4CCC(CCNC(=O)CON)CC4)cc3)c2n1` [AXC-879, N-(2-(1-(4-((6-amino-2-butoxy-8-oxo-7H-purin-9(8H)-yl)methyl)benzyl)piperidin-4-yl)ethyl)-2-(aminooxy)acetamide], the “TLR7 activity / potency stated in words” value is “highest potency”.

On to `CCCCOc1nc(N)c2[nH]c(=O)n(Cc3ccc(CN4CCC(CCNC(=O)c5ccc(N)c(OC)c5)CC4)cc3)c2n1` [AXC-895, 4-amino-N-(2-(1-(4-((6-amino-2-butoxy-8-oxo-7H-purin-9(8H)-yl)methyl)benzyl)piperidin-4-yl)ethyl)-3-methoxybenzamide], for which the “TLR7 activity / potency stated in words” value is “highest potency”.

For `CCCCOc1nc(N)c2[nH]c(=O)n(Cc3ccc(CN4CCC(C5CCN(C(=O)CON)CC5)CC4)cc3)c2n1` [AXC-901, 6-amino-9-(4-((1′-(2-(aminooxy)acetyl)-4,4′-bipiperidin-1-yl)methyl)benzyl)-2-butoxy-7H-purin-8(9H)-one], the “TLR7 activity / potency stated in words” value is reported as “highest potency”.

For the molecule `CCCCOc1nc(N)c2[nH]c(=O)n(Cc3ccc(CN4CCC(CCNC(=O)c5cccc(N)c5)CC4)cc3)c2n1` [AXC-903, 3-amino-N-(2-(1-(4-((6-amino-2-butoxy-8-oxo-7,8-dihydro-9H-purin-9-yl)methyl)benzyl)piperidin-4-yl)ethyl)benzamide], the EC50 reads like this: under setting [1], 4.3 nM; under setting [2], < 10 nM.

Take `CCCCOc1nc(N)c2[nH]c(=O)n(Cc3ccc(CN4CCC(CCNC(=O)c5ccc(CCN)cc5)CC4)cc3)c2n1` [AXC-904, N-(2-(1-(4-((6-amino-2-butoxy-8-oxo-7,8-dihydro-9H-purin-9-yl)methyl)benzyl)piperidin-4-yl)ethyl)-4-(2-aminoethyl)benzamide]: the EC50 under setting [1] stood at 8.1 nM and the EC50 under setting [2] is < 10 nM.

On to `CCCCOc1nc(N)c2[nH]c(=O)n(Cc3ccc(CN4CCC(CCNC(=O)c5ccc(N)cc5)CC4)cc3)c2n1` [AXC-905, 4-amino-N-(2-(1-(4-((6-amino-2-butoxy-8-oxo-7,8-dihydro-9H-purin-9-yl)methyl)benzyl)piperidin-4-yl)ethyl)benzamide], for which the EC50 under setting [1] amounted to 2.6 nM.

(Values after US12569566B2, “Compositions containing, methods and uses of antibody-TLR agonist conjugates” (Ambrx, Inc., priority 2019, dated 2026).)
